Results published in patent US8501713B2, “Drug combinations for the treatment of duchenne muscular dystrophy” (Summit Corporation PLC, priority 2007, dated 2013).

Tested on: Utrophin A promoter linked to a luciferase reporter gene
Assay: Luciferase reporter assay (murine H2K cells)
Type: cell-based
Details: for Activity: luciferase reporter assay in murine H2K cells, classified relative to control; for activity at 10 µM: Mus musculus, H2K mdx, luciferase level relative to control, H2K/mdx/Utro A reporter cells, compound 10 μM final concentration, read-out: Activity
Summary of the method: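 Immortalized mdx mouse H2K myoblasts stably carrying a ~5 kb utrophin A promoter–luciferase construct, kept at 33° C, 10% CO2. After 24 hrs plating, compound added at 10 μM final for 48 hrs; luciferase light output read after in-situ lysis.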

SMILES | Activity | activity at 10 µM
Cc1ccc2[nH]c(-c3sc4nc(C)ccc4c3N)nc2c1 [Example 632] | ++++ (Above 401% relative to control) | 
O=C(CC(F)(F)F)Nc1ccc2oc(-c3cccc(Cl)c3Cl)nc2c1 [Example 363, N-(2-(2,3-dichlorophenyl)benzo[d]oxazol-5-yl)-3,3,3-trifluoropropanamide] |  | > 401%
CN(C)c1ccc(C(=O)Nc2ccc3oc(-c4ccccc4)nc3c2)cc1 [Example 27, 4-(dimethylamino)-N-(2-phenylbenzo[d]oxazol-5-yl)benzamide] |  | < 200%
COc1ccc(-c2nc3ccccc3s2)cc1NC(C)=O [Example 542] | ++ (Between 201% and 300% relative to control) | 
CCc1ccc2oc(-c3ccc(N)cc3)nc2c1 [Example 553] | ++++ (Above 401% relative to control) | 
COc1ccc(-c2nc3ccc([N+](=O)[O-])cc3o2)cc1 [Example 584] | +++ (Between 301% and 400% relative to control) | 
CCC(=O)Nc1cccc(-c2nc3cc(C)ccc3o2)c1 [Example 644] | +++ (Between 301% and 400% relative to control) | 
CCS(=O)(=O)c1ccc2oc(-c3ccc4cc(Br)ccc4c3)nc2c1 [Example 424, 2-(6-bromonaphthalen-2-yl)-5-(ethylsulfonyl)benzo[d]oxazole] |  | < 200%
O=C(NCCc1ccccc1)c1cc2ccccc2o1 [Example 665] | ++ (Between 201% and 300% relative to control) | 
CCCc1ccc(-c2nc3cc(C(=O)O)ccc3o2)cc1 [Example 108, 2-(4-propylphenyl)benzo[d]oxazole-5-carboxylic acid] |  | < 200%
CCCCc1ccc(-c2nc3ccc([N+](=O)[O-])cc3o2)nc1 [Example 262, 2-(5-butylpyridin-2-yl)-6-nitrobenzo[d]oxazole] |  | 201 to 300%
C(=C\c1nc2ccccc2[nH]1)/c1ccccc1 [Example 547] | +++ (Between 301% and 400% relative to control) | 
CCCC(=O)Nc1ccc2oc(-c3ccccc3F)nc2c1 [Example 242, N-(2-(2-fluorophenyl)benzo[d]oxazol-5-yl)butyramide] |  | < 200%
CSc1ccc(-c2nc3ccccc3[nH]2)cc1 [Example 543] | ++ (Between 201% and 300% relative to control) | 
O=C(Nc1ccc2oc(-c3cccnc3)nc2c1)c1cccnc1 [Example 81, N-(2-(pyridin-3-yl)benzo[d]oxazol-5-yl)nicotinamide] |  | < 200%
Nc1c(C(=O)Nc2ccccc2F)sc2nc3c(cc12)CCC3 [Example 673] | ++ (Between 201% and 300% relative to control) | 
Cc1ccc(-c2nc3ccccc3[nH]2)cc1NC(=O)C(F)(F)F [Example 568] | +++ (Between 301% and 400% relative to control) | 
Cc1c(N)cccc1-c1nc2cc(Cl)ccc2o1 [Example 566] | + (Up to 200% relative to control) | 
O=C(Nc1ccc2oc(-c3ccc(Cl)cc3)nc2c1)C1CC1 [Example 265, N-(2-(4-chlorophenyl)benzo[d]oxazol-5-yl)cyclopropanecarboxamide] |  | > 401%
Cc1ccc2[nH]c(-c3ccc(NC(=O)c4ccco4)cc3)nc2c1 [Example 580] | +++ (Between 301% and 400% relative to control) | 
CC(=O)Nc1ccc2oc(-c3ccc4ccccc4c3)nc2c1 [Example 373, N-(2-(naphthalen-2-yl)benzo[d]oxazol-5-yl)acetamide] |  | > 401%

SMILES | Activity | activity at 10 µM
Clc1ccc(-c2nc3cc(-c4ccccc4)ccc3o2)cc1 [Example 162, 2-(4-chlorophenyl)-5-phenylbenzo[d]oxazole] |  | < 200%
Cc1ccc(-c2nc3cc(NC(=O)c4ccc(Cl)cc4)ccc3o2)cc1 [Example 19, 4-chloro-N-(2-p-tolylbenzo[d]oxazol-5-yl)benzamide] |  | < 200%
COc1ccc(C(=O)Nc2ccc3oc(-c4ccccc4)nc3c2)cc1 [Example 25, 4-methoxy-N-(2-phenylbenzo[d]oxazol-5-yl)benzamide] |  | < 200%
Cc1ccc2nc(-c3ccc(Cl)cc3)oc2c1 [Example 457, 2-(4-Chlorophenyl)-6-methylbenzo[d]oxazole] |  | > 401%
Nc1ccc2oc(-c3ccc(Cl)c(Cl)c3)nc2c1 [Example 480] | ++ (Between 201% and 300% relative to control) | 
Cc1ccc2sc(-c3ccc(NC(=O)c4cc(-n5cnnc5)ccc4Cl)cc3)nc2c1 [Example 688] | ++ (Between 201% and 300% relative to control) | 
Cc1cc2nc(-c3ccc(Cl)cc3)oc2cc1C [Example 222, 2-(4-chlorophenyl)-5,6-dimethylbenzo[d]oxazole] |  | > 401%
Cn1c(COc2ccccc2)nc2ccccc21 [Example 474] | + (Up to 200% relative to control) | 
Cc1cc(-c2nc3ccccc3o2)ccc1[N+](=O)[O-] [Example 607] | ++++ (Above 401% relative to control) | 
CC(C)C(=O)Nc1ccc2oc(-c3cccc(Cl)c3Cl)nc2c1 [Example 273, N-(2-(2,3-dichlorophenyl)benzo[d]oxazol-5-yl)isobutyramide] |  | > 401%
Cc1ccc2oc(-c3ccc([N+](=O)[O-])cc3)nc2c1 [Example 505] | ++ (Between 201% and 300% relative to control) | 
CC(C)C(=O)Nc1ccc2oc(-c3cc(F)ccc3Cl)nc2c1 [Example 344, N-(2-(2-chloro-5-fluorophenyl)benzo[d]oxazol-5-yl)isobutyramide] |  | < 200%
Nc1ccc(-c2nc3cc(Cl)c(Cl)cc3o2)c(O)c1 [Example 428, 5-amino-2-(5,6-dichlorobenzo[d]oxazol-2-yl)phenol] |  | 301 to 400%
Cc1ccc(-c2nc3cc(NC(=O)C(C)C)ccc3o2)cc1 [Example 118, N-(2-p-tolylbenzo[d]oxazol-5-yl)isobutyramide] |  | 201 to 300%
COc1ccc2oc(-c3cccc(N)c3)nc2c1 [Example 630] | ++++ (Above 401% relative to control) | 
O=C(Nc1ccccc1-c1nc2ccccc2[nH]1)c1ccc(Cl)cc1Cl [Example 500] | + (Up to 200% relative to control) | 
Cc1ccc(S(=O)(=O)Nc2ccc3[nH]c(-c4ccco4)nc3c2)cc1 [Example 536] | + (Up to 200% relative to control) | 
O=C(Nc1ccc(-c2nc3ccccc3[nH]2)cc1)c1ccccc1 [Example 497] | + (Up to 200% relative to control) | 
CC(C)C(=O)Nc1ccc2oc(-c3cccnc3)nc2c1 [Example 56, N-(2-(pyridin-3-yl)benzo[d]oxazol-5-yl)isobutyramide] |  | 201 to 300%
Cc1cccc(-c2nc3cc([N+](=O)[O-])ccc3o2)c1 [Example 533] | ++ (Between 201% and 300% relative to control) | 
Nc1ccc(-c2nc3ccccc3[nH]2)cc1 [Example 475] | + (Up to 200% relative to control) | 

SMILES | Activity | activity at 10 µM
Cc1ccc(-c2nc3cccnc3o2)cc1 [Example 157, 2-p-tolyloxazolo[5,4-b]pyridine] |  | 301 to 400%
Cc1ccc(C(=O)Nc2ccc3oc(-c4cccnc4)nc3c2)cc1 [Example 41, 4-methyl-N-(2-(pyridin-3-yl)benzo[d]oxazol-5-yl)benzamide] |  | < 200%
CCS(=O)(=O)c1ccc2oc(-c3ccccc3)nc2c1 [Example 84, 5-(ethylsulfonyl)-2-phenylbenzo[d]oxazole] |  | 201 to 300%
CCc1nc2cc(S(=O)(=O)CC)ccc2o1 [Example 572] | + (Up to 200% relative to control) | 
COc1ccc(-c2nc3ccccc3s2)cc1O [Example 596] | ++++ (Above 401% relative to control) | 
O=C(Nc1nc2ccccc2[nH]1)c1cccc(Cl)c1 [Example 679] | ++ (Between 201% and 300% relative to control) | 
Nc1ccc2sc(-c3ccc(Cl)c(Cl)c3)nc2c1 [Example 284, 2-(3,4-dichlorophenyl)benzo[d]thiazol-5-amine] |  | > 401%
CCCc1nc2cc(S(=O)(=O)CC)ccc2o1 [Example 571] | + (Up to 200% relative to control) | 
O=C(Nc1ccc(-c2nc3ccccc3[nH]2)cc1)c1ccco1 [Example 562] | +++ (Between 301% and 400% relative to control) | 
Nc1ccc2oc(CCc3ccccc3)nc2c1 [Example 280, 2-phenethylbenzo[d]oxazol-5-amine] |  | > 401%
Nc1ccc(-c2nc3cc(Br)ccc3o2)cc1 [Example 336, 4-(5-bromobenzo[d]oxazol-2-yl)aniline] |  | > 401%
O=[N+]([O-])c1ccc2oc(N3CCOCC3)nc2c1 [Example 357, 2-morpholino-5-nitrobenzo[d]oxazole] |  | < 200%
Nc1ccc2oc(-c3ccc4ccccc4n3)nc2c1 [Example 402, 2-(quinolin-2-yl)benzo[d]oxazol-5-amine] |  | 301 to 400%
Cc1ccc(NC(=O)Nc2nc3ccccc3s2)cc1 [Example 637] | +++ (Between 301% and 400% relative to control) | 
CCc1ccc2oc(-c3cccc(NC(C)=O)c3)nc2c1 [Example 642] | +++ (Between 301% and 400% relative to control) | 
O=[N+]([O-])c1ccc2nc(-c3ccccc3)oc2c1 [Example 130, 6-nitro-2-phenylbenzo[d]oxazole] |  | 201 to 300%
CCCNC(=O)c1ccc2oc(-c3ccc(C)cc3)nc2c1 [Example 177, N-propyl-2-p-tolylbenzo[d]oxazole-5-carboxamide] |  | > 401%
Cc1ccc(C(=O)Nc2ccc3oc(-c4ccccc4)nc3c2)cc1 [Example 24, 4-methyl-N-(2-phenylbenzo[d]oxazol-5-yl)benzamide] |  | < 200%
CC(=O)Nc1ccc(-c2nc3cc(C)ccc3o2)cc1 [Example 662] | +++ (Between 301% and 400% relative to control) | 
CCS(=O)(=O)c1ccc2oc(-c3ccc4c(c3)CCCC4)nc2c1 [Example 444, 5-(ethylsulfonyl)-2-(5,6,7,8-tetrahydronaphthalen-2-yl)benzo[d]oxazole] |  | 301 to 400%
Cc1ccc(-c2nc3ccccc3[nH]2)cc1 [Example 613] | +++ (Between 301% and 400% relative to control) | 
